Results from patent US20120121691A1, “Method for Increasing the Production of a Specific ACYL-Chain Dihydroceramide(s) for Improving the Effectiveness of Cancer Treatments” (priority 2010, published 2012).

How the values were obtained:
[1] = test system: MOLT-4 ALL cells; test: DIMSCAN cytotoxicity assay, MOLT-4; format: cell-based, human; settings: MOLT-4, sphinganine 1 μM, GT-11 0.5 μM, 48 hours
Description: (§1) Cell culture. The pre-T acute lymphoblastic leukemia cell lines MOLT-4 and CCRF-CEM, small cell lung cancer cell line NCI-H146, non-small cell lung cancer cell line NCI-H1792, colon cancer cell lines LoVo and HT-29, and breast cancer cell line MCF-7, were purchased from American Type Culture Collection, Manassas, Va., and grown at 20%/5% and 5%/5%, respectively. COG-LL-317 and COG-LL-332 pre-T acute lymphoblastic leukemia cell lines were obtained from the TTUHSC Cancer Center Cell Repository and grown at 5%/5%. Cell line identities were verified by short tandem repeat analysis and mycoplasma testing was performed. Cell lines were maintained in RPMI-1640 medium supplemented with 10% fetal bovine serum (FBS, Invitrogen) in humidified, 37° C. incubators. For all experiments, ALL cell lines were seeded at 2. cells/mL in RPMI-1640 medium supplemented with 15% fetal bovine serum. Solid tumor cell lines were plated at 5×cells/mL in RPMI-1640 medium supplemented with 10% fetal bovine serum.
(§2) Cytotoxicity Assay. Cytoxicity is determined using the DIMSCAN assay system (R. Proffitt et al., Cytometry 24, 204-213 (1996); T. Frgala et al., Proc. AACR, 36, 303 (1995). The system employs digital imaging microscopy to quantify viable cells, which selectively accumulate fluorescein diacetate to become brightly fluorescent. The system is capable of measuring cytotoxicity over a 4-5 log dynamic range by quenching the residual fluorescence of dead and dying cells with eosin Y and quantifying the total fluorescence of viable cells using digital thresholding. Measured fluorescence is directly proportionate to the number of viable cells. A comparison of the total fluorescence of a drug-treated cell population to the fluorescence of a similar number of untreated cells yields a survival fraction. […]
(§3) The addition of C22:0-fatty acid, but not C18:0 or C22:1 fatty acids, increased cytotoxicity (FIGS. 7A-7F). […] Cytotoxicity was measured using DIMSCAN, and data was normalized to control and plotted as survival fraction (y-axis). […]

[2] = test system: COG-LL-317; test: DIMSCAN cytotoxicity assay, COG-LL-317; format: cell-based; settings: COG-LL-317, sphinganine 1 μM, GT-11 0.5 μM, 48 hours
Description: as §1, §2, §3

[3] = test system: LoVo colon cancer cells; test: DIMSCAN cytotoxicity assay, LoVo; format: cell-based, human; settings: fatty acid 5 micromolar
Description: as §1
(§4) Cytotoxicity Assay. Cytoxicity is determined using the DIMSCAN assay system (R. Proffitt et al., Cytometry 24, 204-213 (1996); T. Frgala et al., Proc. AACR, 36, 303 (1995). The system employs digital imaging microscopy to quantify viable cells, which selectively accumulate fluorescein diacetate to become brightly fluorescent. The system is capable of measuring cytotoxicity over a 4-5 log dynamic range by quenching the residual fluorescence of dead and dying cells with eosin Y and quantifying the total fluorescence of viable cells using digital thresholding. Measured fluorescence is directly proportionate to the number of viable cells.
(§5) In brief, 5,000 to 25,000 cells/well depending on the cell line (5,000 for solid tumor, 25,000 for ALL cell lines) were replicate plated into 60 wells of a 96-well tissue culture plate in 0.1 cc media and allowed to attach or recover overnight. Drug(s) are then added in 0.05 cc media to the final concentrations indicated. […] Total fluorescence of viable cells is then measured by digital imaging microscopy and the signal normalized to control cells. […]

[4] = test system: NCI-H146 small cell lung cancer cells; test: DIMSCAN cytotoxicity assay, NCI-H146; format: cell-based, human; settings: NCI-H146, fatty acid 5 micromolar
Description: as §1, §4, §5

[5] = test system: MCF-7 breast cancer cells; test: DIMSCAN cytotoxicity assay, MCF-7; format: cell-based; settings: MCF-7, fatty acid 5 micromolar
Description: as §1
(§6) Cytotoxicity Assay. Cytoxicity is determined using the DIMSCAN assay system (R. Proffitt et al., Cytometry 24, 204-213 (1996); T. Frgala et al., Proc. AACR, 36, 303 (1995). The system employs digital imaging microscopy to quantify viable cells, which selectively accumulate fluorescein diacetate to become brightly fluorescent. The system is capable of measuring cytotoxicity over a 4-5 log dynamic range by quenching the residual fluorescence of dead and dying cells with eosin Y and quantifying the total fluorescence of viable cells using digital thresholding. Measured fluorescence is directly proportionate to the number of viable cells. A comparison of the total fluorescence of a drug-treated cell population to the fluorescence of a similar number of untreated cells yields a survival fraction.
(§7) In brief, 5,000 to 25,000 cells/well depending on the cell line (5,000 for solid tumor, 25,000 for ALL cell lines) were replicate plated into 60 wells of a 96-well tissue culture plate in 0.1 cc media and allowed to attach or recover overnight. […]

[6] = test system: NCI-H1792 non-small cell lung cancer cells; test: DIMSCAN cytotoxicity assay, NCI-H1792; format: cell-based; settings: NCI-H1792, fatty acid 5 micromolar
Description: as §1, §6, §7

[7] = test system: reactive oxygen species; test: Reactive oxygen species generation; format: cell-based, human; settings: C22:0-fatty acid with sphinganine plus GT-11
[8] = test system: CCRF-CEM cells; test: DIMSCAN cytotoxicity assay, CCRF-CEM; format: cell-based; settings: 48 hours
Description: as §1, with “For all experiments, ALL cell lines were seeded at 2. cells/mL in RPMI-1640 medium supplemented with 15% fetal bovine serum. Solid tumor cell lines were plated at 5×cells/mL in RPMI-1640 medium supplemented with 10% fetal bovine serum.” left out
as §4, with “cells. […]” for “cells.”

Structure (SMILES)	effect of fatty acid co-treatment on cytotoxicity of sphinganine with GT-11 [1]	effect of fatty acid co-treatment on cytotoxicity of sphinganine with GT-11 [2]	effect of fatty acid on fenretinide cytotoxicity [3]	effect of fatty acid on fenretinide cytotoxicity [4]	effect of fatty acid on fenretinide cytotoxicity [5]	effect of fatty acid on fenretinide cytotoxicity [6]	increase of reactive oxygen species [7]	effect of fatty acid addition on sphinganine/GT-11 cytotoxicity [8]
CCCCCCCCCCCCCCCCCCCCCC(=O)O [C22:0-fatty acid]	increased	increased	increased fenretinide cytotoxicity	increased fenretinide cytotoxicity	increased fenretinide cytotoxicity	increased fenretinide cytotoxicity	not observed	–
CCCCCCCC/C=C\CCCCCCCCCCCC(=O)O [C22:1-fatty acid]	not	not	–	–	–	–	–	did not impart any additional cytotoxicity
